Measured values: ChEMBL document CHEMBL5137007, “Hamuramicin C, a Cytotoxic Bicyclic Macrolide Isolated from a Wasp Gut Bacterium” (J Nat Prod, 2022)

Legend:
A549 = test: Antiproliferative activity against human A549 cells measured after 72 hrs by SRB assay; type: functional, cell-based; conditions: A549, 72 h
[1] = Selectivity index, ratio of IC50 for human MRC5 cells to IC50 for human HCT-116 cells; type: toxicity; conditions: MRC5 cells versus HCT-116 cells, read-out: Selectivity Index
SNU-638 = test: Antiproliferative activity against human SNU-638 cells measured after 72 hrs by SRB assay; type: functional, cell-based; conditions: SNU-638, 72 h
[2] = Antiproliferative activity against human MRC5 cells measured after 72 hrs by SRB assay; type: toxicity, cell-based
HCT-116 = test: Antiproliferative activity against human HCT-116 cells measured after 72 hrs by SRB assay; type: functional, cell-based; conditions: HCT-116, 72 h
SK-HEP1 = test: Antiproliferative activity against human SK-HEP1 cells measured after 72 hrs by SRB assay; type: functional, cell-based; conditions: SK-HEP1, 72 h
[3] = Selectivity index, ratio of IC50 for human MRC5 cells to IC50 for human MDA-MB-231 cells; type: toxicity; conditions: MRC5 cells versus MDA-MB-231 cells, read-out: Selectivity Index
[4] = Selectivity index, ratio of IC50 for human MRC5 cells to IC50 for human A549 cells; type: toxicity; conditions: MRC5 cells versus A549 cells, read-out: Selectivity Index
MDA-MB-231 = test: Antiproliferative activity against human MDA-MB-231 cells measured after 72 hrs by SRB assay; type: functional, cell-based; conditions: MDA-MB-231, 72 h
[5] = Selectivity index, ratio of IC50 for human MRC5 cells to IC50 for human SNU-638 cells; type: toxicity; conditions: MRC5 cells versus SNU-638 cells, read-out: Selectivity Index
[6] = Selectivity index, ratio of IC50 for human MRC5 cells to IC50 for human SK-HEP1 cells; type: toxicity; conditions: MRC5 cells versus SK-HEP1 cells, read-out: Selectivity Index

CCC[C@]1(O)C[C@H](O)[C@@H](C)[C@H]([C@H](C)[C@@H]2C/C=C/C=C/C=C/[C@H](O)C(=O)/C(C)=C/C(C)=C/[C@@H](O)/C(C)=C/CC(=O)O2)O1
IC50 (A549): 7300 nM | selectivity ratio [1]: 14.2 | IC50 (SNU-638): 2400 nM | IC50 at 72 h [2]: 18700 nM | IC50 (HCT-116): 1300 nM | IC50 (SK-HEP1): 2600 nM | selectivity ratio [3]: 5.5 | selectivity ratio [4]: 2.6 | IC50 (MDA-MB-231): 3400 nM | selectivity ratio [5]: 7.9 | selectivity ratio [6]: 7.2

COc1cc([C@@H]2c3cc4c(cc3[C@@H](O[C@@H]3O[C@@H]5CO[C@@H](C)O[C@H]5[C@H](O)[C@H]3O)[C@H]3COC(=O)[C@H]23)OCO4)cc(OC)c1O [ETOPOSIDE]
IC50 (A549): 800 nM | IC50 at 72 h [2]: > 20000 nM | IC50 (HCT-116): 1400 nM | IC50 (SK-HEP1): 700 nM | IC50 (MDA-MB-231): 9700 nM
